Tests used:
[1] = test system: young UM-HET3 male mice; assay: Transcriptomic clock of expected maximum lifespan applied to liver and kidney of mice given compounds for 1 month; type: in vivo, mouse; settings: 1 month treatment, data pooled across tissues, adjusted p-value <0.05, FIG. 6E
Excerpt: To examine if longevity of rodents can be predicted based on gene expression data, we used 1,030 liver samples of mice and rats with known maximum lifespan to construct transcriptomic clock of expected lifespan.
To test if the constructed clock can be used to identify new longevity interventions, we applied it to the liver and kidney samples obtained from young UM-HET3 male mice subjected to 25 different compounds for 1 month together with age-matched controls. These compounds were chosen using a CMAP platform^30 and gene expression signatures of longevity identified in our previous studies^31.

[2] = test system: 25-month-old C57BL/6JNia mice; assay: Survival study of old mice with compound added to the diet; type: in vivo, mouse; settings: compound added to diet from 25 months of age; log-rank p-value <0.05; FIGS. 6F-H
[3] = test system: mouse tissues; assay: Change of biological age (tAge), lifespan-adjusted multi-tissue transcriptomic clock applied to RNAseq datasets of treated mice (ClockBase); type: in vivo; settings: for effect on biological age (tAge) versus age-matched control mice: statistically significant effect on tAge, FIG. 6A
Excerpt: Preprocessing of the data prior to applying the clock included filtering of low-expressed genes using soft threshold (genes with less than 5 reads in more than 80% of samples were removed), mapping of gene IDs to the mouse Entrez IDs, RLE normalization (for RNA-seq data), log-transformation, scaling and ranking/YuGene transformation (optionally, for the corresponding clock models). Missing values corresponding to the clock genes not detected in the data were imputed with the average values precalculated during the training of the clock model.
Preprocessed gene expression profiles were used as an input for the clock, and tAges were returned by the model as an output. Differences between tAges of control and treated groups were assessed using linear regression model (for OSKM reprogramming datasets) and independent t-tests (for other applications). When multiple comparisons were assessed, obtained p-values were adjusted with Benjamini-Hochberg method.
To discover candidate interventions that slow down biological aging and extend mammalian lifespan and healthspan, we utilized ClockBase^25 and processed 1,349 publicly available RNAseq datasets corresponding to mouse tissues exposed to various pharmacological, dietary and genetic interventions. For every intervention, we used gene expression data to calculate tAges of subjected mice and compared them with tAges of age-matched control mice. […] In addition to the well-known lifespan-extending interventions, such as rapamycin, they included β3-adrenoceptor agonist CL 316,243^26,27 and the cardiac glycoside ouabain^28.

[4] = test system: 30-month-old mice; assay: Healthspan of old mice (gait speed, frailty index); type: in vivo, mouse
[5] = cited from earlier work
[6] = test system: aged rodents; settings: cited from earlier work

COc1ccc(-c2ccc3c(N4CCOC[C@@H]4C)nc(N4CCOC[C@@H]4C)nc3n2)cc1CO [AZD-8055]
predicted effect on expected (maximum) lifespan according to the transcriptomic longevity clock [1]: predicted to be beneficial for mouse longevity
lifespan of old male mice (survival) [2]: significantly extended lifespan

C[C@H](Cc1ccc2c(c1)OC(C(=O)[O-])(C(=O)[O-])O2)NC[C@H](O)c1cccc(Cl)c1.[Na+].[Na+] [CL 316,243]
effect on biological age (tAge) versus age-matched control mice [3]: decrease in biological age

COc1ccc(-c2ccc3c(N4CCOCC4)nc(N4C[C@@H](C)O[C@@H](C)C4)nc3n2)cc1CO [KU-0063794]
predicted effect on expected (maximum) lifespan according to the transcriptomic longevity clock [1]: predicted to be beneficial for mouse longevity
lifespan of old male mice (survival) [2]: significantly extended lifespan
frailty index [4]: decreased
gait speed [4]: improved

CCCCCCCCCCCCCCCC(=O)OC[C@H](O)[C@H]1OC(=O)C(O)=C1O [ascorbyl-palmitate]
predicted effect on expected (maximum) lifespan according to the transcriptomic longevity clock [1]: predicted to be beneficial for mouse longevity

C[C@@H]1O[C@@H](O[C@H]2C[C@@H](O)[C@]3(CO)[C@H]4[C@H](O)C[C@]5(C)[C@@H](C6=CC(=O)OC6)CC[C@]5(O)[C@@H]4CC[C@]3(O)C2)[C@H](O)[C@H](O)[C@H]1O [ouabain]
reduction of biological age ([3]; 3-month treatment, 24-month-old mice, liver, FIG. 6B): ~20%
effect on biological age (tAge) versus age-matched control mice [3]: decrease in biological age
senolytic activity [5]: exhibit senolytic activity
physical function of aged rodents [6]: improve physical function

Cc1onc(-c2ccccc2)c1-c1ccc(S(N)(=O)=O)cc1 [valdecoxib]
predicted effect on expected (maximum) lifespan according to the transcriptomic longevity clock [1]: predicted to be beneficial for mouse longevity

interleukin 6: interleukin 6 injection
effect on biological age (tAge) versus age-matched control mice [3]: increase of biological age
